Test results reported in US8426606B2, “2′,2-bisthiazole non-nucleoside compounds, preparation methods, pharmaceutical compositions and uses as hepatitis virus inhibitors thereof” (Shanghai Institute of Materia Medica, Chinese Academy of …, priority 2010, dated 2013).
Where two headings read alike, the source gives them in different places.

What was measured:
[1] = Cytotoxicity on HepG2.2.15 cells (MTT assay); assay type: cell-based, Human; details: human, read-out: CC50 (concentration at which 50% of cells was killed)
Description: (§1) The anti-HBV activity assay of a specimen compound was performed in HepG2.2.15 cells stably transformed with the whole genome of HBV, including the determination of the cytotoxicity of the specimen compound (CC50) and the effect of the specimen compound on the replication level of HBV-DNA (IC50).
(§2) The Human hepatoma carcinoma cell HepG2.2.15 cell line stably transformed with the whole genome of HBV can stably secrete hepatitis B virosomes (containing DNA) in the supernatant of culture during culture. Both the antiviral activity and the cytotoxicity of the specimen drugs may be determined by detecting the amount of virus DNA secreted into the supernatant of culture by the cells under the intervention of an antiviral drug, in reference to the amount in control group that is the absence of the antiviral drug. A real-time fluorescent quantitation PCR assay was adopted to determine the concentration of a specimen drug at which 50% of the replication of HBV-DNA was inhibited (IC50), and a MTT assay was adopted to determine the concentration of a specimen drug at which 50% cytotoxicity occurs (CC50).
(§3) HepG2.2.15 cells were inoculated on a 96-well plate at 5×10^5 cells/ml. On the second day, the specimen drug was added. After the culture medium and the specimen drug having the same concentration as above were replaced periodically, on the eighth day, the supernatant of culture was collected to be tested. To the cells on the 96-well plate, MTT (5 mg/ml) is added. 4 hours later, MTT lysis solution was added (100 μl/well). The next day, OD570 was read on a microplate reader. The cytotoxicity of the specimen drug on HepG2.2.15 cells, the influence of specimen drug on cell growth, and the concentration of specimen drug at which 50% of cells were killed (CC50) were calculated in accordance with the OD value.

[2] = In vivo pharmacokinetic studies in rats (intragastric and intravenous); parameters: species or system SD rats; details: rat; for bioavailability: plasma, po, male SD rats, 20 mg/kg intragastric, dosage normalized, calculated according to AUC0-t
Description: (§4) Intragastric Administration Three healthy male SD rats having body weights of 200 g to 250 g were administered with a specimen drug with a dosage of 20 mg/kg and a volume of 10 ml/kg. The rats were fasted for 12 hours before administration and had the freedom to drink water. The venous blood with a volume of 0.3 ml was obtained from the retrobulbar venous plexus of the rats at 0.25 h, 0.5 h, 1.0 h, 2.0 h, 3.0 h, 4.0 h, 5.0 h, 7.0 h, 9.0 h and 24 h after the administration, put in a heparinized tube, and centrifuged for 10 minutes at 3500 rpm to separate the plasma, which was stored at −20° C. to be tested.
as §4, with “Intravenous Injection: Three healthy” for “Intragastric Administration Three healthy”, “dosage of 10 mg/kg and” for “dosage of 20 mg/kg and”, “volume of 5.0 ml/kg. The” for “volume of 10 ml/kg. The”, “rats at 5 min, 15 min, 0.5 h,” for “rats at 0.25 h, 0.5 h,”, “heparinized tube, centrifuged for” for “heparinized tube, and centrifuged for”

[3] = system: HBV; assay: Anti-HBV activity assay: HBV-DNA replication in HepG2.2.15 cells, fluorescent quantitation PCR of culture supernatant; assay type: cell-based, Hepatitis B Virus; details: for IC50: HBV-DNA in supernatant on the eighth day, read-out: IC50 (concentration at which 50% of the replication of HBV was inhibited); for SI (bioactivity selective index): anti-HBV
Description: as §1, §2
The specimen drug was prepared into a solution having a concentration (400 μM) desired for the experiment before use. Six diluted concentrations were tested for each specimen drug. The clinical anti-hepatitis B virus drug Lamivudine was used as the positive control in experiment so as to determine whether the reaction is normal or not in each experiment.
as §3
A proper amount of the supernatant of culture was added into an isovolumic virus extract and mixed uniformly. The resulted mixture was boiled, and then centrifuged for 5 minutes at 10,000 rpm at room temperature. A proper amount of the obtained supernatant was used to perform PCR amplification, and meanwhile four standard samples of HBV-DNA were set up to make a standard curve. The inhibition of each specimen drug at various concentrations against the replication of HBV-DNA was calculated according to the detected replication value of the viral DNA, and then the half inhibition of the specimen drug was calculated to obtain its IC50.

[4] = in vitro; assay type: cell-based; details: human
Description: The anti-HCV activity assay was performed by using Huh7.5.1 cells (donated by WUHAN INSTITUTE of VIROLOGY, CHINESE ACADEMY OF SCIENCES) infected by HCV (J399E) inserted with enhanced green fluorescent protein (EGFP). The variation of the green fluorescence intensity was recorded on a microplate reader and cytotoxicity was measured at the same time, so as to evaluate the influence of the compound on the replication activity of HCV.
(§5) Huh7.5.1 cells (10% FBS, DMEM) at the concentration of 10^5 cells/ml were inoculated on a 96-well plate (Costar 3904) with 100 μl per well. 24 hours later, the supernatant of culture was sucked out, and 50 μl of virus supernatant with MOI=0.1 was added. 8 hours later, 50 μl of the testing drug was added and 100 μl of culture medium was supplemented. After incubation for 72 hours, the supernatant was sucked out, and read on a fluorescent microplate reader (Ex=488 nm, Em=516 nm). Then each well was added with 20 μl of MTT (5 mg/ml) and additional 50 μl of culture medium. 4 hours later, 100 μl of MTT lysis solution was added. 6 hours later, reading was performed at a wavelength of 570 nm.

[5] = system: HCV (J399E); assay: microbe, parasite or virus in culture; assay type: cell-based, Hepatitis C Virus; details: for IC50: Hepatitis C virus, Huh-7.5.1, 72 h, read-out: IC50 (concentration at which 50% of the replication of HCV was inhibited); for SI (bioactivity selective index): anti-HCV, Huh7.5.1 cells
Description: The variation of the green fluorescence intensity was recorded on a microplate reader and cytotoxicity was measured at the same time, so as to evaluate the influence of the compound on the replication activity of HCV.
Compounds to be tested were dissolved in DMSO to prepare a stock solution before the test. Upon using, the stock solution was diluted to a desired concentration with DMEM (Dulbecco's Modified Eagle Media, purchased from GibcoBRL company (Life Technologies, Grand Island, N.Y., USA)) containing 10% FBS (fetal bovine serum, purchased from Hyclone company (Logan, Utah, USA)).
Positive control: ribavirin (purchased from Sigma/Aldrich). It was dissolved in DMSO to prepare a stock solution and stored at −20° C. before use, and diluted to a desired concentration upon using.
as §5

[6] = system: HepG2.2.15 cells; assay: Cytotoxicity on HepG2.2.15 cells (MTT assay); assay type: cell-based, Human; details: read-out: CC50 (concentration at which 50% of cells was killed)
Description: as §1, §2, §3

| Structure (SMILES) | CC50 at 6 days [1] | bioavailability [2] | IC50 ([3]; Hepatitis B virus) | SI (bioactivity selective index) [3] | CC50 at 72 h [4] | IC50 [5] | SI (bioactivity selective index) [5] | CC50 [6] | average oral bioavailability ([2]; in vivo, 10 mg/kg) | IC50 [3] |
| --- | --- | --- | --- | --- | --- | --- | --- | --- | --- | --- |
| CC(C)=Cc1sc(-c2nccs2)nc1C(=O)NCc1ccc(F)cc1 [Compound 373, N-(p-fluorobenzyl)-5-[1-(2-methylpropenyl)]-2′,2-bisthiazole-4-formamide] | > 100 µM | 6.9% | 0.9 µM | >111.1 | 85 µM | 5.7 µM | 14.9 |  |  |  |
| C/C(=C\c1sc(-c2nccs2)nc1C(=O)NCc1ccc(F)cc1)CO [Compound 389, N-(p-fluorobenzyl)-5-[1-(3-hydroxy-2-methylpropenyl)]-2′,2-bisthiazole-4-formamide] | > 100 µM |  | 30.2 µM | >3.3 | 76.5 µM | 6.6 µM | 11.6 |  |  |  |
| CC(C)C(O)c1sc(-c2nccs2)nc1C(=O)NCc1ccc(F)cc1 (centres unmarked) [Compound 391-1, N-(p-fluorobenzyl)-5-(1-hydroxy-2-methylpropyl)-2′,2-bisthiazole-4-formamide] | 34 µM |  | 1.63 µM | 20.9 | 48.6 µM | 10.2 µM | 4.8 |  |  |  |
| CC(C)(O)Cc1sc(-c2nccs2)nc1C(=O)NCc1ccc(F)cc1 [Compound 391-2, N-(p-fluorobenzyl)-5-(2-hydroxy-2-methylpropyl)-2′,2-bisthiazole-4-formamide] | > 100 µM | 76.5% | 5.4 µM | >18.5 | 134 µM | 21.3 µM | 6.3 |  |  |  |
| CC(CO)Cc1sc(-c2nccs2)nc1C(=O)NCc1ccc(F)cc1 (centres unmarked) [Compound 391-3, N-(p-fluorobenzyl)-5-(3-hydroxy-2-methylpropyl)-2′,2-bisthiazole-4-formamide] | > 100 µM |  | < 0.41 µM | >243.9 | 28.1 µM | 9.9 µM | 2.8 |  |  |  |
| C/C(=C\c1sc(-c2nccs2)nc1C(=O)NCc1ccc(F)cc1)CF [Compound 391-F, N-(p-fluorobenzyl)-5-[1-(2-fluoromethylpropenyl)]-2′,2-bisthiazole-4-formamide] | > 100 µM |  | 12.5 µM | >8 | 84.7 µM | 6.5 µM | 13.0 |  |  |  |
| CC(C)C(F)c1sc(-c2nccs2)nc1C(=O)NCc1ccc(F)cc1 (centres unmarked) [Compound 393-1, N-(p-fluorobenzyl)-5-(1-fluoro-2-methylpropyl)-2′,2-bisthiazole-4-formamide] | > 33.3 µM |  | < 0.41 µM | >81 | 40.9 µM | 7.4 µM | 5.5 |  |  |  |
| CC(C)(F)Cc1sc(-c2nccs2)nc1C(=O)NCc1ccc(F)cc1 [Compound 393-2, N-(p-fluorobenzyl)-5-(2-fluoro-2-methylpropyl)-2′,2-bisthiazole-4-formamide] | > 33.3 µM |  | 0.41 to 33.3 µM | <81 | > 33.3 µM | 1.5 µM | >22.2 |  |  |  |
| COC(c1sc(-c2nccs2)nc1C(=O)NCc1ccc(F)cc1)C(C)C (centres unmarked) [Compound 405-1, N-(p-fluorobenzyl)-5-(1-methoxy-2-methylpropyl)-2′,2-bisthiazole-4-formamide] | > 33.3 µM |  | 2.6 µM | >12.8 | 21.4 µM | 3.7 µM | 5.8 |  |  |  |
| CC(C)Cc1sc(-c2nccs2)nc1C(=O)NCc1ccc(F)cc1 [Compound W28F, N-parafluorobenzyl-5-isobutyl-2′,2-bithiazole-4-formamide, reference compound] |  |  |  |  |  |  |  | > 33.3 µM | 2.80% | 2.6 µM |
| Nc1ccn([C@@H]2CS[C@H](CO)O2)c(=O)n1 [Lamivudine, reference compound] | > 5 µM |  | < 0.16 µM | >32 |  |  |  |  |  |  |
| CC(C)=Cc1sc(-c2ncc(C)s2)nc1C(=O)NCc1ccc(F)cc1 [Me-373, N-(p-fluorobenzyl)-5′-methyl-5-[1-(2-methylpropenyl)]-2′,2-bisthiazole-4-formamide] | > 100 µM |  | 1.1 µM | >90.9 | 66.6 µM | 17.4 µM | 3.8 |  |  |  |
| Cc1cnc(-c2nc(C(=O)NCc3ccc(F)cc3)c(C(O)C(C)C)s2)s1 (centres unmarked) [Me-391-1, N-(p-fluorobenzyl)-5′-methyl-5-(1-hydroxy-2-methylpropyl)-2′,2-bisthiazole-4-formamide] | > 33.3 µM |  | 2.9 µM | >11.5 | > 33.3 µM | 3.7 µM | >9 |  |  |  |
| Cc1cnc(-c2nc(C(=O)NCc3ccc(F)cc3)c(C(F)C(C)C)s2)s1 (centres unmarked) [Me-393-1, N-(p-fluorobenzyl)-5′-methyl-5-(1-fluoro-2-methylpropyl)-2′,2-bisthiazole-4-formamide] | > 100 µM |  | 0.2 µM | >500 | > 100 µM | 6.6 µM | >15.2 |  |  |  |
| NC(=O)c1ncn([C@@H]2O[C@H](CO)[C@@H](O)[C@H]2O)n1 [Ribavirin, ribavirin, reference compound] |  |  |  |  | > 200 µM | 72.4 µM | >2.8 |  |  |  |
